Data from PMC8602401 (Scientific Reports, 2021).

Tests used:
monkey plasma protein = assay: EScalate equilibrium shift assay, monkey plasma; assay type: in vitro ADME; settings: EScalate equilibrium shift assay
Procedure: [The procedure below names another species; the source lists this species under the same test.] (§1) Binding of peptides to human plasma proteins was determined by the EScalate equilibrium shift assay (Sovicell, Leipzig, Germany), using five dilutions of plasma in phosphate buffered saline and an assumed binding protein concentration of 600 µM. Samples were incubated for 1 h at room temperature then centrifuged to remove the HSA-coated beads. Supernatant samples were analyzed using HPLC (3 µm Phenomenex Aeris Widepore XB-C18 stationary phase) coupled to an electrospray ionization quadrupole time-of-flight mass spectrometer in high resolution accurate mass mode (Agilent, Santa Clara, CA, USA). Unbound fractions were calculated from the concentration-dependent shift in binding equilibrium according to fu=1/1+P/KDPlasma , where P is the concentration of the binding protein in plasma and KDPlasma is the dissociation constant of the compound from plasma proteins in solution.

[1] = oral semaglutide with SNAC; cited from earlier work
From the text: Previous approaches to engineering peptide therapeutics include substitution with unnatural amino acids to protect proteolytically vulnerable sites, and lipidation to promote reversible serum protein binding and reduced renal clearance[40]–[42]. […] Ala[8] is replaced with artificial α-methyl-L-alanine to protect the peptide against serum DPP-IV and the peptide is mono-lipidated at Lys[26],[43]. Despite these modifications, semaglutide is still susceptible to rapid proteolytic degradation in th ...

[2] = set-up: method as in PMID 30429357; settings: oral semaglutide in dogs; cited from earlier work
human plasma protein = assay: EScalate equilibrium shift assay, human plasma; assay type: in vitro ADME; settings: EScalate equilibrium shift assay
Procedure: as §1

dog plasma protein = assay: EScalate equilibrium shift assay, dog plasma; assay type: in vitro ADME
rat plasma protein = assay: EScalate equilibrium shift assay, rat plasma; assay type: in vitro ADME; settings: EScalate equilibrium shift assay
[3] = Pharmacokinetics of oral tablets in dogs; assay type: in vivo; settings: oral tablets 20 mg/dog, semaglutide: 300 mg SNAC, uncoated, MEDI7219: 100 mg NaCDC and 200 mg PG, pH 5.5 enteric, arithmetic mean (% CV)
FaSSIF/pancreatin = assay: Fasted-state simulated intestinal fluid/pancreatin assay; assay type: in vitro ADME; settings: FaSSIF/USP pancreatin; analytical RP-HPLC
Procedure: Fresh FaSSIF and USP Pancreatin (FaSSIF/p; Sigma-Aldrich) was prepared according to Galia et al[55]. and used immediately. Peptides were dissolved in pre-warmed FaSSIF before addition of pre-warmed FaSSIF/pancreatin with agitation. Samples were analyzed by analytical RP-HPLC to determine remaining intact peptide by area under the curve.

[4] = Bioavailability after intraduodenal administration with permeation enhancers in rats; assay type: in vivo, rat; settings: single intraduodenal administration with permeation enhancers (NaCDC and PG), n = 4 per group
Procedure: Male Sprague Dawley rats (Charles River, Shrewsbury, MA, USA) weighing 250–275 g were housed with ad libitum access to standard chow and water. Test peptides were administered via either an intravenous or a duodenal catheter (4 rats per group) after overnight fasting, and food was returned following 4 h blood collection. Blood was collected via a jugular vein catheter at − 5, 15 and 30 min and 1, 2, 4, 8 and 24 h after intravenous dosing, or for intraduodenal groups at 15 min predose and 0.5, 1, 2, 4, 8, 24 and 48 h postdose. Blood was collected in K2EDTA tubes and kept on wet ice prior to 10 min centrifugation (3000 × g) at 5 °C ± 3 °C. Plasma samples were stored at − 70 °C until analysis.
Fifty or seventy μL aliquots of K2EDTA plasma samples were precipitated with 75% acetonitrile (Sigma-Aldrich) in water (J.T. Baker, Phillipsburg, NJ, USA) (v/v) and centrifuged at 2000 × g. The supernatant was dried under nitrogen at 60 °C, then cooled. Samples were reconstituted in 20% acetonitrile in water (v/v). […] Gradient separation was performed with water and 0.2% formic acid (Thermo Fisher Scientific, Waltham, MA, USA) as mobile phase A, and acetonitrile with 0.2% formic acid as mobile phase B. The method was qualified for the quantification range of 1–1000 ng/mL with accuracy and precision of ± 20%, except for at the lower limit of quantification when the accuracy and precision were ± 25%. Plasma concentrations were subject to noncompartmental analysis consistent with the route of administration using Phoenix WinNonlin (version 7.0, Certara, Princeton, NJ, USA).

peptide bound to plasma proteins, monkey (monkey plasma protein): over 97% | peptide bound to plasma proteins, human (human plasma protein): over 97% | peptide bound to plasma proteins, dog (dog plasma protein; EScalate equilibrium shift assay): over 97% | peptide bound to plasma proteins, rat (rat plasma protein): over 97% | AUC0-inf ([3]; n = 9): 1,440 (45.8) ng·h/mL | F (bioavailability, systemic fraction) ([3]; n = 9): 0.08 (45.8) % | F (bioavailability, systemic fraction) ([3]; n = 9, listed as semaglutide): 0.08% | t½ ([3]; plasma, LC/MS, n = 9): 60.5 (13.6) hours | time to complete degradation in FaSSIF/pancreatin (FaSSIF/pancreatin): less than 20 min | mean bioavailability (%F) [4]: 0.08%
Compound: CC[C@H](C)[C@H](NC(=O)[C@H](Cc1ccccc1)NC(=O)[C@H](CCC(=O)O)NC(=O)[C@H](CCCCNC(=O)COCCOCCNC(=O)COCCOCCNC(=O)CC[C@H](NC(=O)CCCCCCCCCCCCCCCCC(=O)O)C(=O)O)NC(=O)[C@H](C)NC(=O)[C@H](C)NC(=O)[C@H](CCC(N)=O)NC(=O)CNC(=O)[C@H](CCC(=O)O)NC(=O)[C@H](CC(C)C)NC(=O)[C@H](Cc1ccc(O)cc1)NC(=O)[C@H](CO)NC(=O)[C@H](CO)NC(=O)[C@@H](NC(=O)[C@H](CC(=O)O)NC(=O)[C@H](CO)NC(=O)[C@@H](NC(=O)[C@H](Cc1ccccc1)NC(=O)[C@@H](NC(=O)CNC(=O)[C@H](CCC(=O)O)NC(=O)C(C)(C)NC(=O)[C@@H](N)Cc1cnc[nH]1)[C@@H](C)O)[C@@H](C)O)C(C)C)C(=O)N[C@@H](C)C(=O)N[C@@H](Cc1c[nH]c2ccccc12)C(=O)N[C@@H](CC(C)C)C(=O)N[C@H](C(=O)N[C@@H](CCCNC(=N)N)C(=O)NCC(=O)N[C@@H](CCCNC(=N)N)C(=O)NCC(=O)O)C(C)C [Semaglutide, semaglutide, reference compound]
bioavailability of oral formulation with SNAC [1]: 0.4–1% | published bioavailability (%F) in dogs [2]: 1.22% | Fraction unbound peptide (%), dog (dog plasma protein; EScalate equilibrium shift, five dilutions of plasma in PBS, 1 h at room temperature, HPLC-QTOF MS): 0.37%
